# Values of other authors, collected in patent US20060045850A1, “Nasal delivery of cyclodextrin complexes of anti-inflammatory steroids” (QPharma, LLC, priority 2004, published 2006).
smiles,measurement,setting,value
CCC(=O)O[C@]1(C(=O)SCF)[C@H](C)C[C@H]2[C@@H]3C[C@H](F)C4=CC(=O)C=C[C@]4(C)[C@@]3(F)[C@@H](O)C[C@@]21C [Fluticasone],absorption when administered orally,administered orally,no absorption
same,absolute bio-availability,"from the suspension formulation, administered nasally",less than 2.0%
